Measurements from US4778796A, “ω-(3-pyridyl)alkenamide derivatives and anti-allergenic pharmaceutical compositions containing same” (Dainippon Pharmaceutical Co., Ltd., priority 1985, dated 1988).
Where two headings read alike, the source gives them in different places.

What was measured:
[1] = tested on: histamine-induced contraction of isolated guinea pig trachea; experiment: Inhibitory effect on histamine-induced contraction of isolated guinea pig trachea; parameters: species or system guinea pig (male Hartley)
Protocol: (2) Inhibitory effect on histamine-induced contraction of isolated guinea pig trachea:
Male Hartley guinea pigs (400-700 g) were used. Zig-zag strips of guinea pig trachea were prepared by the method of Emmerson and Mackay [cf. J. Pharm. […] Dose-response curves for histamine were obtained before and 5 minutes after the addition of test compounds. Inhibitory rate was calculated from contraction heights in 3×10^-5 M of histamine without vs. with test compound.

experimental asthma = experiment: Inhibitory effect on experimental asthma in rats; format: in vivo, rat (male Wistar); conditions: Rattus norvegicus, po, 1 hour before antigen challenge
Protocol: (2) Inhibitory effect on experimental asthma in rats: This test was carried out by the method of Church and Miller [cf. Brit. […] Male Wistar rats (200-250 g) were sensitized by an intraperitoneal injection of 1 ml of a 0.01% egg albumin solution containing 1 mg of Al(OH)3. Two weeks later, the rats were anesthetized with 1.3 g/kg of urethane. The trachea and jugular vein were cannulated. Respiratory volume and velocity were measured by attaching one end of the tracheal cannula to respiratory volume meter connected to a carrier amplifier and an integrator. The rats were challenged by an intravenous injection of 4 mg/kg of egg ablumin 30 minutes after the anesthesia. Test compounds, dissolved or suspended in a 0.5% aqueous tragacanth solution, were administered orally 1 hour before the antigen challenge. Each group of 4 rats was used for each dose of the test compound. ED50 values were calculated from the best fit linear regression line of inhibitory rates of respiratory volume and velocity in each dose.

In the case of Cc1ccc(C=CC(=O)NCCCCN2CCN(C(c3ccccc3)c3ccccc3)CC2)cn1 [Example 2, N-[3-(6-methyl-3-pyridyl)acryloyl]-4-(4-diphenylmethyl-1-piperazinyl)butylamine], the IC50 ([1]; 3×10^-5 M histamine, isolated guinea pig trachea, read-out: Anti-hist. activity IC50) is reported as 1100 nM, the “antihistamine activity (in words)” value ([1]; compared with ketotifen fumarate) is reported as “potent antihistamine activity, though fairly inferior to that of ketotifen fumarate” and the ED50 (experimental asthma; respiratory velocity, read-out: ED50, respiratory velocity) is reported as 5.5 mg/kg. For the same compound, the ED50 (experimental asthma; respiratory volume, read-out: ED50, respiratory volume) was 14.4 mg/kg.
